{"source": "ChEMBL document CHEMBL3407411", "about": "“Evaluating the risk of phospholipidosis using a new multidisciplinary pipeline approach” (Eur J Med Chem, 2015)", "assay_type_in_all_cases": "cell-based", "details_in_all_cases": "hepg2, 24 h", "key": {"HepG2 [1]": {"system": "HepG2", "experiment": "Cytotoxicity against human HepG2 cells assessed as reduction in cell viability at 0.1 to 100 uM after 24 hrs by Neutral red uptake assay"}, "HepG2 [2]": {"system": "HepG2", "experiment": "Cytotoxicity against human HepG2 cells assessed as NBD-PC phospholipid accumulation at 0.1 to 100 uM after 24 hrs by Hoechst 33342 normalization-based fluorescence assay"}, "HepG2 [3]": {"system": "HepG2", "experiment": "Cytotoxicity against human HepG2 cells assessed as disruption of membrane integrity up to 100 uM after 24 hrs by LDH release assay"}, "HepG2 [4]": {"system": "HepG2", "experiment": "Cytotoxicity against human HepG2 cells assessed as increase in lysosomal beta-hexosaminidase level at 50 to 100 uM after 24 hrs by MUG-based fluorescence assay"}, "HepG2 [5]": {"system": "HepG2", "experiment": "Cytotoxicity against human HepG2 cells assessed as formation of lysosomal inclusion bodies at 50 uM after 24 hrs by transmission electron microscopy"}, "HepG2 [6]": {"system": "HepG2", "experiment": "Cytotoxicity against human HepG2 cells assessed as NBD-PC phospholipid accumulation after 24 hrs by Hoechst 33342 normalization-based fluorescence assay"}, "HepG2 [7]": {"system": "HepG2", "experiment": "Cytotoxicity against human HepG2 cells assessed as increase in lysosomal beta-hexosaminidase level at 20 uM after 24 hrs by MUG-based fluorescence assay"}, "HepG2 [8]": {"system": "HepG2", "experiment": "Cytotoxicity against human HepG2 cells at 100 uM after 24 hrs by Hoechst 33342 staining-based fluorescence assay"}, "HepG2 [9]": {"system": "HepG2", "experiment": "Cytotoxicity against human HepG2 cells assessed as reduction in cell viability after 24 hrs by Neutral red uptake assay"}, "HepG2 [10]": {"system": "HepG2", "experiment": "Cytotoxicity against human HepG2 cells assessed as disruption of membrane integrity at 35 uM after 24 hrs by LDH release assay"}, "HepG2 [11]": {"system": "HepG2", "experiment": "Cytotoxicity against human HepG2 cells assessed as disruption of membrane integrity at 20 uM after 24 hrs by LDH release assay"}, "HepG2 [12]": {"system": "HepG2", "experiment": "Cytotoxicity against human HepG2 cells assessed as increase in lysosomal beta-hexosaminidase level at 35 uM after 24 hrs by MUG-based fluorescence assay"}, "HepG2 [13]": {"system": "HepG2", "experiment": "Cytotoxicity against human HepG2 cells assessed as disruption of membrane integrity at >= 50 uM after 24 hrs by LDH release assay"}, "HepG2 [14]": {"system": "HepG2", "experiment": "Cytotoxicity against human HepG2 cells assessed as reduction in cell viability at >/= 50 uM after 24 hrs by Neutral red uptake assay"}, "HepG2 [15]": {"system": "HepG2", "experiment": "Cytotoxicity against human HepG2 cells assessed as increase in lysosomal beta-hexosaminidase level at 10 to 100 uM after 24 hrs by MUG-based fluorescence assay"}, "HepG2 [16]": {"system": "HepG2", "experiment": "Cytotoxicity against human HepG2 cells assessed as reduction in cell viability at 100 uM after 24 hrs by Neutral red uptake assay"}}}
{"compound": "CN/C(=N/CCSCc1nc[nH]c1C)NC#N", "note": "[CIMETIDINE]", "values": [{"measurement": "Activity", "setting": "HepG2 [1]", "result": "Non-toxic"}, {"measurement": "Activity", "setting": "HepG2 [2]", "result": "Non-toxic"}, {"measurement": "Activity", "setting": "HepG2 [3]", "result": "Non-toxic"}]}
{"compound": "c1cc(C[N+]23CN4CN(CN(C4)C2)C3)cs1", "values": [{"measurement": "Activity", "setting": "HepG2 [1]", "result": "Non-toxic"}, {"measurement": "Activity", "setting": "HepG2 [2]", "result": "Non-toxic"}, {"measurement": "Activity", "setting": "HepG2 [3]", "result": "Non-toxic"}]}
{"compound": "Clc1ccccc1CNC1CN2CCC1CC2", "note": "(stereo unspecified)", "values": [{"measurement": "Activity", "setting": "HepG2 [2]", "result": "Non-toxic"}]}
{"compound": "OC(CN1CCOCC1)c1csc2ccccc12", "note": "(stereo unspecified)", "values": [{"measurement": "Activity", "setting": "HepG2 [1]", "result": "Non-toxic"}, {"measurement": "Activity", "setting": "HepG2 [2]", "result": "Non-toxic"}, {"measurement": "Activity", "setting": "HepG2 [3]", "result": "Non-toxic"}]}
{"compound": "CCN(CC)CCNC1=Nc2ccccc2CCC1", "values": [{"measurement": "Activity", "setting": "HepG2 [4]", "result": "Toxic"}, {"measurement": "Activity", "setting": "HepG2 [5]", "result": "Toxic"}, {"measurement": "Activity", "setting": "HepG2 [2]", "result": "Non-toxic"}]}
{"compound": "Cc1cccc(C)c1C(OCCN(C)C)C1CCCCC1", "note": "(stereo unspecified)", "values": [{"measurement": "Activity", "setting": "HepG2 [4]", "result": "Toxic"}, {"measurement": "Activity", "setting": "HepG2 [6]", "result": "Dose-dependent effect"}, {"measurement": "Activity", "setting": "HepG2 [7]", "result": "Toxic"}, {"measurement": "Activity", "setting": "HepG2 [8]", "result": "Toxic"}, {"measurement": "Activity", "setting": "HepG2 [9]", "result": "Dose-dependent effect"}, {"measurement": "Activity", "setting": "HepG2 [5]", "result": "Toxic"}, {"measurement": "Activity", "setting": "HepG2 [10]", "result": "Non-toxic"}, {"measurement": "Activity", "setting": "HepG2 [11]", "result": "Non-toxic"}, {"measurement": "Activity", "setting": "HepG2 [12]", "result": "Toxic"}, {"measurement": "Activity", "setting": "HepG2 [13]", "result": "Toxic"}, {"measurement": "Activity", "setting": "HepG2 [14]", "result": "Toxic"}]}
{"compound": "COc1ccc(CNCC(O)c2nnn(C)n2)cc1OC", "note": "(stereo unspecified)", "values": [{"measurement": "Activity", "setting": "HepG2 [1]", "result": "Non-toxic"}, {"measurement": "Activity", "setting": "HepG2 [5]", "result": "Toxic"}, {"measurement": "Activity", "setting": "HepG2 [2]", "result": "Toxic"}, {"measurement": "Activity", "setting": "HepG2 [3]", "result": "Non-toxic"}]}
{"compound": "CCOc1ccc(Br)cc1CNCC1CCNCC1", "values": [{"measurement": "Activity", "setting": "HepG2 [6]", "result": "Dose-dependent effect"}, {"measurement": "Activity", "setting": "HepG2 [8]", "result": "Toxic"}, {"measurement": "Activity", "setting": "HepG2 [9]", "result": "Dose-dependent effect"}, {"measurement": "Activity", "setting": "HepG2 [5]", "result": "Toxic"}, {"measurement": "Activity", "setting": "HepG2 [15]", "result": "Toxic"}, {"measurement": "Activity", "setting": "HepG2 [13]", "result": "Toxic"}, {"measurement": "Activity", "setting": "HepG2 [14]", "result": "Toxic"}]}
{"compound": "CCCCc1oc2ccccc2c1C(=O)c1cc(I)c(OCCN(CC)CC)c(I)c1", "note": "[AMIODARONE]", "values": [{"measurement": "Activity", "setting": "HepG2 [4]", "result": "Toxic"}, {"measurement": "Activity", "setting": "HepG2 [6]", "result": "Dose-dependent effect"}, {"measurement": "Activity", "setting": "HepG2 [8]", "result": "Toxic"}, {"measurement": "Activity", "setting": "HepG2 [9]", "result": "Dose-dependent effect"}, {"measurement": "Activity", "setting": "HepG2 [13]", "result": "Toxic"}]}
{"compound": "CCN(CC)CCNCc1c(OC)ccc2ccccc12", "values": [{"measurement": "Activity", "setting": "HepG2 [16]", "result": "Non-toxic"}, {"measurement": "Activity", "setting": "HepG2 [6]", "result": "Dose-dependent effect"}, {"measurement": "Activity", "setting": "HepG2 [8]", "result": "Non-toxic"}, {"measurement": "Activity", "setting": "HepG2 [5]", "result": "Toxic"}, {"measurement": "Activity", "setting": "HepG2 [15]", "result": "Toxic"}]}
{"compound": "CC1=NN(C(=O)c2nn(C)cc2[N+](=O)[O-])C(O)(C(F)(F)F)C1", "note": "(stereo unspecified)", "values": [{"measurement": "Activity", "setting": "HepG2 [1]", "result": "Non-toxic"}, {"measurement": "Activity", "setting": "HepG2 [2]", "result": "Non-toxic"}, {"measurement": "Activity", "setting": "HepG2 [3]", "result": "Non-toxic"}]}
{"compound": "C1CN(CCN2CCOCC2)CCO1", "values": [{"measurement": "Activity", "setting": "HepG2 [1]", "result": "Non-toxic"}, {"measurement": "Activity", "setting": "HepG2 [2]", "result": "Non-toxic"}, {"measurement": "Activity", "setting": "HepG2 [3]", "result": "Non-toxic"}]}
